The data set is classed as physicochemical. Here is the method:
840 mg of sildenafil base (Carbosynth) was introduced into 40 ml of 50% aqueous ethanol at an unadjusted pH of 7.7. […] Finally, the pH of the mixture was further lowered to a pH of approximately 4 by the introduction of additional 1M HCl upon which the mixture began to solubilize.
840 mg of sildenafil base (Carbosynth), together with 840 mg of sucralose was introduced into 40 ml of 50% aqueous ethanol at an unadjusted pH of 7.7. […] The pH of the mixture was further lowered to a pH of approximately 4.6 by the introduction of additional 1M HCl upon which the mixture began to solubilize. Additional 1M HCl was added to the mixture until it completely solubilized at a pH of 3.83.
945 mg of sildenafil base (Carbosynth), together with 945 mg of sucralose was introduced into 45 ml of 50% aqueous ethanol at an unadjusted pH of 7.7. […] The pH of the mixture was then lowered to by the stepwise introduction of 1M HCl during stirring until the mixture was fully solubilized at pH 4.92.

Read-outs that look alike come from different tables or passages of the source.

Regarding `CCCc1nn(C)c2c(=O)[nH]c(-c3cc(S(=O)(=O)N4CCN(C)CC4)ccc3OCC)nc12` [sildenafil base], the “pH at which the mixture completely solubilized” value worked out at 3.83 and the “pH at which the mixture was fully solubilized” value is recorded as 4.92. Besides, for the setting “Example 1a: 840 mg in 40 ml, pH 5.6 (1M HCl), stirred 10 minutes”, the dissolution result was “remaining opaque and undissolved”. Moreover, the dissolution result (Example 1a: 840 mg in 40 ml, stirred at pH 4.25 for 1 hour, final pH 4.28) was “totally transparent and without precipitate”. For the same compound, the dissolution result (Example 1a: 840 mg in 40 ml, unadjusted pH 7.7, stirring 10 minutes) is given as “remained undissolved”. In addition, the dissolution result (Example 1b: 840 mg with 840 mg sucralose in 40 ml, pH 5.6 (1M HCl), stirred 10 minutes) was “remaining opaque and undissolved”. The dissolution entry (Example 1b: 840 mg with 840 mg sucralose in 40 ml, unadjusted pH 7.7, stirring 10 minutes) was “remained undissolved”. Where the note is “Example 1c: 945 mg with 945 mg sucralose in 45 ml, unadjusted pH 7.7, stirring 10 minutes”, the dissolution entry is listed as “remained undissolved”.

These data come from patent US20220193081A1 (Ellamed IP & Services PTE. LTD., priority 2019, published 2022).
